In patent US5112846A, “N-hydroxyamide, N-hydroxythioamide, hydroxyurea, and N-hydroxythiourea derivatives of selected nsaids as antiinflammatory agents” (Warner-Lambert Company, priority 1990, dated 1992):
pIC50: −log10 of the molar value. Where two headings read alike, the source gives them in different places.

How the values were obtained:
[1] = target: T1, 5-Lipoxygenase (Rattus norvegicus, UniProt P12527); assay: ARBL whole cell 5-lipoxygenase assay (LTB4 formation in RBL-1 cells, A23187 stimulated); format: cell-based; settings: for pIC50: read-out: ARBL IC50 (inhibition of LTB4 formation)
T1 construct: host or cells: RBL-1 rat basophilic leukemia cells
T1 sequence (P12527 1-673): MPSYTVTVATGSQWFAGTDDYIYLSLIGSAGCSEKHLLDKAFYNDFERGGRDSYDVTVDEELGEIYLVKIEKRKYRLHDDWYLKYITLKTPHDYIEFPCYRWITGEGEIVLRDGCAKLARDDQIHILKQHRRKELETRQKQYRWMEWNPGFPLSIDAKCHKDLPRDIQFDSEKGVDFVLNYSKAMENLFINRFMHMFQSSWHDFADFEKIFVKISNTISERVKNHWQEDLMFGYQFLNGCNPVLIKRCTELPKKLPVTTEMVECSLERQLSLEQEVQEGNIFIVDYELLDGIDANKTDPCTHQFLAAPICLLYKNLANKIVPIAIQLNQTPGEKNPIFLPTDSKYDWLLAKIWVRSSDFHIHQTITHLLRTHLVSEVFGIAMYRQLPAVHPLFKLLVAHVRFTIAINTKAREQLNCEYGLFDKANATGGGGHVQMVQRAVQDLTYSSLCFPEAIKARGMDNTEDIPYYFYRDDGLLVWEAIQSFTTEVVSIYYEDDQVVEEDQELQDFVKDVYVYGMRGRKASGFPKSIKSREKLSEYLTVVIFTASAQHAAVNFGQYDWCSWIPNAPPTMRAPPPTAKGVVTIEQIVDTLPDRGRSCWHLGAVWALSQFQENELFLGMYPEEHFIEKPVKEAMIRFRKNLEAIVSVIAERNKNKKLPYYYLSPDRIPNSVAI
Description: (§1) ARBL/ARBC Whole Cell 5-Lipoxygenase and Cyclooxygenase Assays
(§2) The rat basophilic leukemia cell line (RBL-1) was obtained from the American Type Culture Collection (Rockville, MD).
(§3) Radioimmunoassay (RIA) kits of LTB4 and PGF2α were obtained from Amersham (Arlington Heights, IL) and Seragen (Boston, MA), respectively.
(§4) RBL-1 cells are grown in suspension culture in Eagle's minimum essential medium supplemented with 12% fetal bovine serum at 37° C. in an incubator supplied with air-5% carbon dioxide. Cells are harvested by centrifugation. They are washed with cold phosphate buffered saline pH 7.4 (PBS; NaCl, 7.1 g; Na2 HPO4, 1.15 g; KH2 PO4, 0.2 g; and KCl, 0.2 g/l). Cells are finally suspended in PBS containing 1.0 mM calcium at a density of 2×10^6 cells/ml. Cells are incubated with and without test agent (in DMSO) (1% DMSO is without effect on arachidonic acid metabolism) for ten minutes at room temperature. Calcium ionophore A23187 (5 μM) is added and cells are incubated for seven minutes at 37° C. The reaction is stopped by chilling the tubes on ice for ten minutes. Cells are separated by centrifugation and the supernatant is stored at -20° C. Aliquots (100 μl) are analyzed for LTB4 and PGF2α using radioimmunoassay kits as provided by the supplier.
(§5) Tables 1-4 contain biochemical data obtained from this whole cell assay either as IC50 s which are calculated as the amount of test compound causing 50% inhibition of LTB4 or PGF2α formation or % inhibition of LTB4 or PGF2α at the indicated amount expressed as μM.

[2] = target: T2, Cyclooxygenase (Rattus norvegicus, UniProt Q63921); assay: ARBC whole cell cyclooxygenase assay (PGF2α formation in RBL-1 cells, A23187 stimulated); format: cell-based; settings: for pIC50: read-out: ARBC IC50 (inhibition of PGF2α formation); for inhibition at 32 µM: Table 3, read-out: ARBC % inhibition (N @ 32)
T2 construct: host or cells: RBL-1 rat basophilic leukemia cells
T2 sequence (Q63921 27-602): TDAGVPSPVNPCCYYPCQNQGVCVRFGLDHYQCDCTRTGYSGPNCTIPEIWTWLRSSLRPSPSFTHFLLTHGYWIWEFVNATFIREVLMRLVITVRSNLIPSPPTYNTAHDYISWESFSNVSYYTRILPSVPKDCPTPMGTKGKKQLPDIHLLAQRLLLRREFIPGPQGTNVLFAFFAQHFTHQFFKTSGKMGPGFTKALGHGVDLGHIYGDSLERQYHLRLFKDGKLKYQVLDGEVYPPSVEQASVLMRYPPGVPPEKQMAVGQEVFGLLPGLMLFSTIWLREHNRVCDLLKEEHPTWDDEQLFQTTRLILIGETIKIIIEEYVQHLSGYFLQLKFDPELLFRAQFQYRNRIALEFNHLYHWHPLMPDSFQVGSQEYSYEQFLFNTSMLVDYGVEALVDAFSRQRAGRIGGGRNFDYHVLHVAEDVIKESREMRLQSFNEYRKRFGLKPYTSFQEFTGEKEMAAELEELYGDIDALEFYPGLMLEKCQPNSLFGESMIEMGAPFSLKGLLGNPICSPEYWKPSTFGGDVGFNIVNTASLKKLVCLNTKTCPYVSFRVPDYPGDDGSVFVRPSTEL
Description: as §1, §2, §3, §4, §5

[3] = RBL-1 cells, read-out: ARBL % inhibition of LTB4
[4] = RBL-1 cells, read-out: ARBC % inhibition of PGF2α
[5] = RBL-1, Table 1, read-out: ARBC % inhibition (N)
[6] = RBL-1, Table 2, read-out: ARBC % inhibition (N)

What does the source list for ONCc1ccc2c(c1)Cc1ccccc1-2 [Example 1, N-Hydroxy-9H-fluorene-2-methanamine]?
inhibition at 16 µM [1, 3]: 97%; inhibition at 16 µM [2, 4]: 76%

Which inhibition at 16 µM [1, 3] does the source give for CCOC(=O)C(=O)N(O)Cc1ccc2c(c1)Cc1ccccc1-2 [Example 2, (9H-Fluoren-2-ylmethyl)hydroxyamino-oxo-acetic acid, ethyl ester] here?
Its inhibition at 16 µM is 96%.

What about the inhibition at 16 µM [2, 5] of the same molecule?
Its inhibition at 16 µM is less than 40%.

How did the inhibition at 16 µM ([1]; RBL-1, Table 1, read-out: ARBL % inhibition (N)) turn out when O=C(O)C(=O)N(O)Cc1ccc2c(c1)Cc1ccccc1-2 [Example 3, (9H-Fluoren-2-ylmethyl)hydroxyamino-oxo-acetic acid] was run?
Its inhibition at 16 µM is less than 40%.

What about the inhibition at 16 µM [2, 5] of the same molecule?
The inhibition at 16 µM was less than 40%.

What does the source list for CC(=O)N(O)Cc1ccc2c(c1)Cc1ccccc1-2 [Example 4, N-(9H-Fluoren-2-ylmethyl)-N-hydroxy-acetamide]?
inhibition at 16 µM [1, 3]: 100%; pIC50 ([2]; RBL-1 cells): 4.92

CC(C)C(=O)N(O)Cc1ccc2c(c1)Cc1ccccc1-2 [Example 5, N-(9H-Fluoren-2-ylmethyl)-N-hydroxy-2-methyl-propanamide] was tested. Which inhibition at 16 µM [1, 3] did it give?
Its inhibition at 16 µM is 99%.

And the inhibition at 16 µM [2, 5]?
Its inhibition at 16 µM is less than 40%.

Which results are given for CNC(=O)N(O)Cc1ccc2c(c1)Cc1ccccc1-2 [Example 6, N-(9H-Fluoren-2-ylmethyl)-N-hydroxy-N'-methylurea]?
inhibition at 16 µM [1, 3]: 100%; inhibition at 16 µM [2, 5]: < 40%

With CC(NO)c1ccc2c(c1)Cc1ccccc1-2 (stereo not drawn) [Example 7, N-Hydroxy-α-methyl-9H-fluorene-2-methanamine] as the molecule, how does the inhibition at 16 µM [1, 3] read?
Its inhibition at 16 µM is 100%.

What about the inhibition at 16 µM [2, 4] of the same molecule?
The inhibition at 16 µM was 89%.

CNC(=O)N(O)C(C)c1ccc2c(c1)Cc1ccccc1-2 (stereo not shown) [Example 8, N-(1-(9H-Fluoren-2-yl)ethyl)-N-hydroxy-N'-methylurea] was tested. Which pIC50 ([1]; RBL-1 cells) did it give?
The pIC50 was 6.04.

And the inhibition at 16 µM [2, 5]?
Its inhibition at 16 µM is less than 40%.

With CCNC(=O)N(O)C(C)c1ccc2c(c1)Cc1ccccc1-2 (stereo not shown) [Example 9, N'-Ethyl-N-(1-(9H-fluoren-2-yl)ethyl)-N-hydroxyurea] as the molecule, how does the inhibition at 16 µM [1, 3] read?
Its inhibition at 16 µM is 100%.

And the inhibition at 16 µM [2, 4]?
The inhibition at 16 µM was 49%.

Which inhibition at 16 µM [1, 3] does the source give for CNC(=S)N(O)C(C)c1ccc2c(c1)Cc1ccccc1-2 (stereo not shown) [Example 10, N-(1-(9H-Fluoren-2-yl)ethyl)-N-hydroxy-N'-methylthiourea] here?
The inhibition at 16 µM was 100%.

And the inhibition at 16 µM [2, 4]?
Its inhibition at 16 µM is 59%.

With CC(=O)N(O)C(C)c1ccc2c(c1)Cc1ccccc1-2 (stereo not shown) [Example 11, N-(1-(9H-Fluoren-2-yl)ethyl)-N-hydroxy-acetamide] as the molecule, how does the pIC50 ([1]; RBL-1 cells) read?
Its pIC50 is 6.12.

What about the inhibition at 16 µM [2, 5] of the same molecule?
Its inhibition at 16 µM is less than 40%.

How did the inhibition at 16 µM [1, 3] turn out when CCOC(=O)N(O)C(C)c1ccc2c(c1)Cc1ccccc1-2 (stereo not drawn) [Example 12, N-Hydroxy-alpha-methyl-9H-fluorene-2-methanamine carbamic acid, ethyl ester] was run?
The inhibition at 16 µM was 95%.

What about the inhibition at 16 µM [2, 4] of the same molecule?
The inhibition at 16 µM was 79%.

Which results are given for CC(C)C(=O)N(O)C(C)c1ccc2c(c1)Cc1ccccc1-2 (stereo not shown) [Example 13]?
inhibition at 16 µM [1, 3]: 90%; inhibition at 16 µM [2, 5]: < 40%

For CCNC(=S)N(O)C(C)c1ccc2c(c1)Cc1ccccc1-2 (stereo not shown) [Example 14, N-(1-(9H-Fluoren-2-yl)ethyl)-N-hydroxy-N'-ethylthiourea], which inhibition at 0.25 µM ([1]; at 0.25 μM, RBL-1 cells) is on record?
Its inhibition at 0.25 µM is 56%.

What about the inhibition at 16 µM [2, 5] of the same molecule?
The inhibition at 16 µM was less than 40%.

CC(C)C(=O)N(O)Cc1ccc2c(c1)OCc1ccccc1C2=O [Example 17, N[(6,11-Dihydro-11-oxodibenz[b,el]oxepin-3-yl)methyl]N-hydroxy-2-methylpropanamide] was tested. Which inhibition at 16 µM [1, 3] did it give?
Its inhibition at 16 µM is 100%.

What about the pIC50 ([2]; RBL-1 cells) of the same molecule?
The pIC50 was 5.24.

CC(=O)N(O)Cc1ccc2c(c1)OCc1ccccc1C2=O [Example 18, N-[(6,11-Dihydro-11-oxodibenz[b,el]oxepin-3-yl)methyl]-N-hydroxyacetamide] was tested. Which pIC50 ([1]; RBL-1 cells) did it give?
The pIC50 was 6.08.

What about the inhibition at 16 µM [2, 6] of the same molecule?
Its inhibition at 16 µM is less than 40%.

With CCOC(=O)C(=O)N(O)Cc1ccc2c(c1)OCc1ccccc1C2=O [Example 19, Ethyl[[(6,11-Dihydro-11-oxodibenz[b,e]oxepin-3-yl)methyl]hydroxyamino]oxoacetate] as the molecule, how does the inhibition at 16 µM [1, 3] read?
The inhibition at 16 µM was 84%.

And the inhibition at 16 µM [2, 6]?
The inhibition at 16 µM was less than 40%.

With CNC(=O)N(O)Cc1ccc2c(c1)OCc1ccccc1C2=O [Example 20, N-[(6,11-Dihydro-11-oxodibenz[b,e]oxepin-3-yl)methyl]-N-hydroxy-N'-methylurea] as the molecule, how does the pIC50 ([1]; RBL-1 cells) read?
The pIC50 was 6.29.

And the inhibition at 16 µM [2, 6]?
Its inhibition at 16 µM is less than 40%.

CC(=O)N(O)Cc1ccccc1Nc1cccc(C)c1C [Example 47] was tested. Which pIC50 ([1]; RBL-1 cells) did it give?
The pIC50 was 6.29.

And the pIC50 ([2]; RBL-1 cells)?
Its pIC50 is 4.82.

CC(=O)N(O)Cc1ccccc1Nc1c(Cl)cccc1Cl [Example 48, N-[[(2,6-Dichlorophenyl)amino]phenyl]methyl-N-hydroxyacetamide] was tested. Which pIC50 ([1]; RBL-1 cells) did it give?
The pIC50 was 5.89.

What about the inhibition at 32 µM ([2]; RBL-1) of the same molecule?
Its inhibition at 32 µM is less than 40%.

What does the source list for CC(=O)N(O)C(C)c1ccccc1Nc1c(Cl)ccc(C)c1Cl (stereo not shown) [Example 53, N-[1-[2-[(2,6-dichloro-3-methylphenyl)amino]phenyl]ethyl]-N-hydroxyacetamide]?
pIC50 ([1]; RBL-1 cells): 5.74; inhibition at 32 µM ([2]; RBL-1): < 40%

COc1ccc2c(c1)c(CN(O)C(C)=O)c(C)n2C(=O)c1ccc(Cl)cc1 [Example 63, N-[[1-(4-Chlorobenzoyl)-5-methoxy-2-methyl-1H-indole-3-yl]methyl]-N-hydroxyacetamide] was tested. Which pIC50 ([2]; RBL-1 cells) did it give?
The pIC50 was 4.82.

With COc1ccc2c(c1)c(CN(O)C(=O)CCC(=O)O)c(C)n2C(=O)c1ccc(Cl)cc1 [Example 66, 4-[[[1-(4-Chlorobenzoyl)-5-methoxy-2-methyl-1H-indol-3-yl]methyl]hydroxyamino]-4-oxo-butanoic acid] as the molecule, how does the inhibition at 16 µM ([1]; RBL-1, Table 4, read-out: ARBL % inhibition (N @ 16)) read?
Its inhibition at 16 µM is less than 40%.

How did the pIC50 ([2]; RBL-1 cells) turn out when COC(=O)N(O)Cc1c(C)n(C(=O)c2ccc(Cl)cc2)c2ccc(OC)cc12 [Example 67, [[1-(4-Chlorobenzoyl)-5-methoxy-2-methyl-1H-indol-3-yl]methyl]hydroxycarbamic acid, methyl ester] was run?
The pIC50 was 4.80.

For COc1ccc2c(c1)c(CN(O)C(N)=O)c(C)n2C(=O)c1ccc(Cl)cc1 [Example 68, N-(Aminocarbonyl)-1-(4-chlorobenzoyl)-N-hydroxy-5-methoxy-2-methyl-1H-indole-3-methanamine], which inhibition at 16 µM [1, 3] is on record?
Its inhibition at 16 µM is 98%.

With CNC(=O)N(O)Cc1c(C)n(C(=O)c2ccc(Cl)cc2)c2ccc(OC)cc12 [Example 69, 1-(4-Chlorobenzoyl)-N-hydroxy-5-methoxy-2-methyl-N-[(methylamino)carbonyl]-1H-indole-3-methanamine] as the molecule, how does the pIC50 ([1]; RBL-1 cells) read?
The pIC50 was 5.60.

Which inhibition at 16 µM [1, 3] does the source give for CCOC(=O)NC(=O)N(O)Cc1c(C)n(C(=O)c2ccc(Cl)cc2)c2ccc(OC)cc12 [Example 72, [[[[1-(4-Chlorobenzoyl)-5-methoxy-2-methyl-1H-indol-3-yl]methyl]hydroxyamino]carbonyl]carbamic acid, ethyl ester] here?
Its inhibition at 16 µM is 98%.

How did the inhibition at 16 µM [1, 3] turn out when CCOC(=O)CNC(=O)N(O)Cc1c(C)n(C(=O)c2ccc(Cl)cc2)c2ccc(OC)cc12 [Example 73, N-[[[[1-(4-Chlorobenzoyl)-5-methoxy-2-methyl-1H-indol-3-yl]methyl]hydroxyamino]carbonyl]glycine, ethyl ester] was run?
Its inhibition at 16 µM is 100%.
